{"source": "patent US10426778B2", "about": "“Prophylactic agent and/or therapeutic agent for diffuse large B-cell lymphoma” (ONO PHARMACEUTICAL CO., LTD., priority 2014, dated 2019)", "system": "ABC-DLBCL patients", "assay": "Open label multicenter non-randomized clinical trial of the present compound as monotherapy in recurrent or refractory ABC-DLBCL patients", "type": "in vivo, human", "procedure": "A clinical trial was conducted by an open label multicenter non-randomized test by administering 6-amino-9-[(3R)-1-(2-butynoyl)-3-pyrrolidinyl]-7-(4-phenoxyphenyl)-7,9-dihydro-8H-purin-8-one hydrochloride, the present compound, as monotherapy to an ABC-DLBCL patient.\nAmong the patients who had already received treatment, who had been diagnosed as a non-Hodgkin's lymphoma, for whom higher preference order of treatment was not present, and who fell under the following definition of “recurrent” or “refractory”, patients satisfying the following conditions entered.\nRecurrent: Patients who attained Complete Response (CR), Complete Response, unconfirmed (CRu), CR with incomplete marrow recovery (CRi) or Partial Response (PR) for 6 months or longer after the last treatment of non-Hodgkin's lymphoma, and for whom pathological advance was recognized.\nRefractory: Patients who could not attain CR, CRu, CRi or PR after the last treatment of non-Hodgkin's lymphoma, or patients who acquired CR, CRu, CRi or PR for shorter than 6 months after the last treatment, but for whom pathological advance was recognized.\nCondition: Two or more NHL treatments have already failed.\nA fixed dose of the present compound was orally administered once per day, with one cycle being treatment for 28 days in 3 patients per one cohort. The schedule was such that this cycle was conducted until 6 cycles, and could be maximally extended to 24 cycles. In the first cohort, all the patients were administered at a fixed dose of 20 mg of the present compound.\nRegarding the NHL patients who entered under the above conditions, an immunohistochemical method or gene expression profiling was conducted according to a conventional method using a diagnostic sample obtained by tissue biopsy excising a part of affected lymph node, so that patients affected with ABC-DLBCL were extracted.\nPrimary evaluation items were safety, tolerance and dose limiting toxicities (DLTs). These items were evaluated using manifestation of adverse event, physical examination, clinical test, vital sign and cardiograph. In addition, the intensity of the adverse event was determined using Common Terminology Criteria for Adverse Events (CTCAE) version 4.0 of the National Cancer Institute.\nSecondary evaluation items were Overall Response Rate (ORR), Complete Response Rate (CR, CRu, CRi), Partial Response Rate (PR), Progression Free Survival (PFS), Overall Survival (OS), Duration of Response, Event Free Survival (EFS), Pharmacokinetics (PK) and Pharmacodynamics (PD). In addition, the evaluations of CR, CRu and PR were conducted by referring to evaluation criteria described in Journal of Clinical Oncology, Vol. 17, No. 4, pages 1244-1253, 1999.\nBiopsy samples of tumor were obtained from ABC-DLBCL patients before administration of the present compound. From the samples, genomic DNA was extracted by conventional method, and the presence or absence of CD79B mutation was confirmed in accordance with the method described in Nature, No. 463, pages 88-92, 2010. As a result, it was seen that, among the 8 ABC-DLBCL patients, all of 7 evaluable patients had CD79B wild-type gene background.", "key": {"[1]": {"settings": "in 8 cases, cohort 4 (160 mg) or cohort 5 (520 mg)"}}}
{"smiles": "CC#CC(=O)N1CC[C@@H](n2c(=O)n(-c3ccc(Oc4ccccc4)cc3)c3c(N)ncnc32)C1.Cl", "note": "[present compound, 6-amino-9-[(3R)-1-(2-butynoyl)-3-pyrrolidinyl]-7-(4-phenoxyphenyl)-7,9-dihydro-8H-purin-8-one hydrochloride]", "values": [{"measurement": "Overall Response Rate (ORR) in ABC-DLBCL patients having CD79B wild-type", "setting": "6 cases in 7 cases", "result": 85, "unit": "%"}, {"measurement": "bleeding-associated event such as intracranial bleeding as adverse event", "setting": "13 ABC-DLBCL patients", "result": "not seen at all"}, {"measurement": "tolerance", "setting": "13 ABC-DLBCL patients administered the present compound", "result": "high tolerance"}, {"measurement": "Overall Response Rate (ORR)", "setting": "ABC-DLBCL patients, 8 cases, cohort 4 (160 mg) or cohort 5 (520 mg), oral once per day", "result": 75, "unit": "%"}, {"measurement": "adverse events classified into grade 3 (drug reaction and lymphopenia)", "setting": "among the 5 cases with adverse event of 13 cases, CTCAE version 4.0", "result": 2, "unit": "cases"}, {"measurement": "PR cases", "setting": "[1]", "result": 6, "unit": "cases"}, {"measurement": "disease progression cases", "setting": "[1]", "result": 2, "unit": "cases"}, {"measurement": "median value of decrease in lymph node", "setting": "in the 6 PR cases, cohort 4 (160 mg) or cohort 5 (520 mg)", "result": 81.5, "unit": "%"}, {"measurement": "decrease in lymph node swelling recognized", "setting": "of 8 ABC-DLBCL patients, first administration cycle, oral once per day", "result": 6, "unit": "patients"}, {"measurement": "adverse event associated with the present compound", "setting": "of 13 cases", "result": 5, "unit": "cases"}]}
